Measurements published in patent publication US9468670B2, “Melatonin-based treatment and diagnosis of bile duct disease” (Texas A&M University System, priority 2011, dated 2016).

Assays:
[1] = test system: SR, CFTR, Cl−/HCO3− AE2, VEGF-A/C; test: Expression of PCNA, SR, CFTR, Cl−/HCO3− AE2, VEGF-A/C in liver sections, liver tissue and cholangiocytes of Morpholino-treated rats; format: in vivo, rat; conditions: normal rats, 1 week
Experimental: (§1) In separate experiments, normal rats treated with Vivo-Morpholino sequences of AANAT (5′-[…] (SEQ ID NO:1), to reduce the biliary expression of AANAT) or Morpholino mismatched (5′-[…] (SEQ ID NO:2)) (Gene Tools LCC) (1 mg/Kg BW/day) for 1 week via an implanted portal vein catheter. Serum, liver tissue, cholangiocytes, kidney, spleen, small intestine, stomach and heart were collected. Since our goal was to knock-down AANAT expression in the liver without inhibiting AANAT expression in other organs, we used a lower dose (1 mg/Kg/day) of Vivo-Morpholino than that described in the original study (3.0 mg/kg/day (Arora et al., 2002). This approach minimizes the amount of Vivo-Morpholino that circulates outside of the liver after slow infusion into the portal vein. See below for the surgical procedure for the implantation of the portal vein catheter by which AANAT Vivo-Morpholino or Morpholino mismatched was administered.
By real-time PCR (Francis et al., 2008), the expression of PCNA, SR, CFTR, Cl^−/HCO3^− AE2, VEGF-A/C was evaluated in total RNA from: (i) cholangiocytes from normal rats, and BDL rats treated with melatonin; and (ii) liver tissue and cholangiocytes from rats treated with mismatch or AANAT Vivo-Morpholino for 1 week. A ΔΔCT analysis was obtained using normal cholangiocytes or normal total liver as control samples (Francis et al., 2008). The primers for rat PCNA, SR, CFTR, Cl^−/HCO3^− AE2, VEGF-A/C (SABiosciences) were designed according to the NCBI GenBank Accession numbers: NM_022381 (PCNA); NM_031115 (SR); NM_017048 (Cl^−/HCO3^− AE2); XM_001059206 (CFTR); NM_031836 (VEGF-A); and NM_053653 (VEGF-C). The percentage of cholangiocytes positive for SR, CFTR, Cl^−/HCO3^− AE2 and VEGF-A/C was evaluated in liver sections: when 0%-5% of bile ducts were positive a negative score was assigned; a +/−score was assigned when 6%-10% of ducts were positive; a +score was assigned when 11%-30% of bile ducts were positive (Glaser et al., 2009).

AANAT = target: T1, AANAT (Rattus norvegicus, UniProt Q64666); test: Melatonin levels in serum and cholangiocyte supernatant (ELISA) of Morpholino-treated rats; format: in vivo; conditions: normal rats
T1 construct: the expression of AANAT in liver sections and cholangiocytes from the selected groups of animals; from tissue; host or cells: Male Fischer 344 rats: liver sections, total liver, isolated cholangiocytes, pineal gland, small intestine, serum
Experimental: In separate experiments, normal rats treated with Vivo-Morpholino sequences of AANAT (5'-[…] NO:1), to reduce the biliary expression of AANAT) or Morpholino mismatched (5'-[…] NO:2)) (Gene Tools LCC) (1 mg/Kg BW/day) for 1 week via an implanted portal vein catheter. Serum, liver tissue, cholangiocytes, kidney, spleen, small intestine, stomach and heart were collected. Since our goal was to knock-down AANAT expression in the liver without inhibiting AANAT expression in other organs, we used a lower dose (1 mg/Kg/day) of Vivo-Morpholino than that described in the original study (3.0 mg/kg/day (Arora et al., 2002). This approach minimizes the amount of Vivo-Morpholino that circulates outside of the liver after slow infusion into the portal vein. See below for the surgical procedure for the implantation of the portal vein catheter by which AANAT Vivo-Morpholino or Morpholino mismatched was administered. Melatonin levels in serum and medium of primary cultures of isolated cholangiocytes were determined by ELISA kits (Genway, San Diego, Calif.). Supernatants were obtained from cholangiocytes (1×10^7 cells/ml) that were incubated for 6 hours at 37° C. (Glaser et al., 2008).

cholangiocytes = test: Biliary proliferation (PCNA, IBDM) and apoptosis (TUNEL) in Morpholino-treated rats; format: in vivo, rat; conditions: normal rats, 1 mg/Kg BW/day for 1 week via portal vein catheter
Experimental: as §1
(§2) Biliary proliferation was determined by measurement of the percentage of PCNA-positive cholangiocytes by immunohistochemistry, and intrahepatic bile duct mass (IBDM) by immunohistochemistry for CK-19 (Mancinelli et al., 2010). Biliary apoptosis was evaluated by semiquantitative terminal deoxynucleotidyltransferase biotin-dUTP nick-end labeling (TUNEL) kit (Chemicon International, Inc., Temecula, Calif.) (Mancinelli et al., 2010). IBDM was determined as the area occupied by CK-19 positive-bile duct/total area×100 (Mancinelli et al., 2010). The morphological changes/damage in liver, spleen, kidney, heart, stomach, and small intestine were evaluated from AANAT Vivo-Morpholino- or mismatch-treated rats by H&E staining. The serum levels of the transaminases, glutamate pyruvate transaminases (SGPT) and glutamic oxaloacetic transaminase (SGOT), alkaline phosphatase (ALP) and total bilirubin were evaluated using a Dimension RxL Max Integrated Chemistry system (Dade Behring Inc., Deerfield Ill.), Chemistry Department, Scott & White.

[2] = rat, in vivo, 1 mg/kg/day
Experimental: as §1, §2

[3] = test system: large cholangiocyte lines; test: PCNA expression and PKA, ERK1/2 phosphorylation (immunoblots) in immortalized large cholangiocytes; format: cell-based, mouse; conditions: preincubation with antagonist (10 mM), melatonin 10^−11 M, 48 hours
Text: (§3) The expression of MT1 and MT2 receptors in immortalized large cholangiocytes was first evaluated by immunofluorescence (Francis et al., 2008). Images were visualized using an Olympus IX-71 confocal microscope. For all immunoreactions, negative controls (with normal serum from the same species substituted for the primary antibody) were included. It was next evaluated by commercially available radioimmunoassay (RIA) kits ([…] et al., 1998; Kato et al., 1992; […] et al., 1999; […] et al., 2004) for cAMP levels ([…] et al., 1998; Kato et al., 1992; […] Shiu et al., 2010). […] […] et al., 1992; Ramirez-Rodriguez et al., 2009; […], 1999). […] Shiu et al., 2010) before evaluating by immunoblots (Francis et al., 2008) the expression of PCNA and the phosphorylation of PKA and EKR1/2.

[4] = test system: large mouse cholangiocyte lines; test: cAMP levels (RIA) in large mouse cholangiocyte lines; format: cell-based; conditions: preincubation with antagonist (10 mM), melatonin 10^−11 M
Text: as §3

MT2 vs. the MT1 subtype = conditions: Shiu et al., 2010; cited from earlier work

T1 sequence (Q64666 whole entry): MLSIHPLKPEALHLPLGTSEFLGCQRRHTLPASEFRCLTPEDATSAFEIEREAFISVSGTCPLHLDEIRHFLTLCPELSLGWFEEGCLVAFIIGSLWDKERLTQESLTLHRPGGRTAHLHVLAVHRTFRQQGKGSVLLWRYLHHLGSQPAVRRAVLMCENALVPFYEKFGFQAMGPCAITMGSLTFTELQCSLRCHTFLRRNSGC

mismatch Morpholino: Morpholino mismatched 5′-GTTCCCGACCTTTGCAACTCGTCCC (SEQ ID NO:2), control for AANAT Vivo-Morpholino (all phosphorodiamidate morpholino (PMO); further chemistry not fully specified)
Immunoreactivity of cholangiocytes to Cl−HCO3− AE2 [1]: +/− (a +/−score was assigned when 6%-10% of ducts were positive)
Immunoreactivity of cholangiocytes to SR [1]: +/− (a +/−score was assigned when 6%-10% of ducts were positive)
Immunoreactivity of cholangiocytes to VEGF-A [1]: +/− (a +/−score was assigned when 6%-10% of ducts were positive)
Melatonin supernatant (AANAT; cholangiocyte supernatant, 6 hours at 37° C., 1 mg/Kg BW/day for 1 week): 5.8 ± 0.6 pg/mL
Melatonin serum (AANAT; 1 mg/Kg BW/day for 1 week via portal vein catheter): 46.4 ± 10.1 pg/mL
% IBDM (cholangiocytes): 0.30 ± 0.04%
% PCNA-positive cholangiocytes (cholangiocytes): 8.00 ± 0.7%
% apoptotic cholangiocytes (cholangiocytes): <5%
ALP [2]: 230.7 ± 9 Units/L
SGOT [2]: 120.5 ± 10.5 Units/L
SGPT [2]: 67.75 ± 4.6 Units/L
Total bilirubin [2]: <0.1 mg/L

CC(=O)NCCc1c(Cc2ccccc2)[nH]c2ccccc12 [luzindole]
Prevention of the melatonin-induced decreases in PCNA expression and PKA, ERK2 phosphorylation [3]: prevented
Prevention of the melatonin-induced decrease in cAMP levels [4]: prevented

CCC(=O)NC1Cc2ccccc2C(c2ccccc2)C1 (stereo not shown) [4-P-PDOT, 4-Phenyl-2-propionamidotetralin]
Prevention of the melatonin-induced decrease in cAMP levels [4]: not
Selectivity for the MT2 vs. the MT1 subtype (MT2 vs. the MT1 subtype): > 300 fold
